Data from patent US6916783B2, “Methods for accelerating bone and cartilage growth and repair” (University of Southern California, priority 1998, dated 2005).
Entries after “also recorded” stand apart in the source; their conditions may differ.

Key:
AT2 receptor = target: T1, AT2 receptor (Homo sapiens, UniProt P50052); conditions: cited from earlier work
T1 sequence (P50052 1-363): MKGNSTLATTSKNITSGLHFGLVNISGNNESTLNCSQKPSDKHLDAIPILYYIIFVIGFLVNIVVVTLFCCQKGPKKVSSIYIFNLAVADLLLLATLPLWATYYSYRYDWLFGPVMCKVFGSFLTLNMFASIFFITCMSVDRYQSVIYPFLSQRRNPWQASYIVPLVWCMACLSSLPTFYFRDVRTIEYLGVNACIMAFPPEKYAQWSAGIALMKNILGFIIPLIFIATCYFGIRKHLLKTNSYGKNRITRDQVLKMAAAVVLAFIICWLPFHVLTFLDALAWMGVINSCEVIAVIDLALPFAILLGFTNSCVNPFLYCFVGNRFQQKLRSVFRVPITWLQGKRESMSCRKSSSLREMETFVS

chondrocytes = test: Rabbit chondrocyte proliferation in culture; assay type: cell-based; conditions: 10 μg/ml peptide; days 1, 2, and 3 after culture initiation; nuclei counted after Giemsa stain; FIGS. 1-4
Experimental: Chondrocytes were isolated from the cartilage of the knee joints of adult rabbits and cultured according to the method of Okazaki et al. (Ann. Rheum. Dis. 55:181-186, 1996). Briefly, cartilage explants were minced into small pieces (approximately 1.5 mm by 1.5 mm). The tissue pieces were digested at 37° C. sequentially in 0.05% hyaluronidase (415 U/mg protein) for 10 minutes, 0.2% Type III trypsin (10,000 U/mg protein, Sigma) and 0.53 mM EDTA for 15 minutes, and 0.2% Type I collagenase (136 U/mg protein, Sigma) for 30 minutes. The samples were then washed and incubated overnight at 37° C. in 5% CO2 in air in Dulbecco's modified Eagle's medium enriched with 10% fetal calf serum, 3.5 mg/ml glucose, 0.2% Type I collagenase and antibiotics (100 U/ml penicillin and 100 μg/ml streptomycin).
After this incubation, the cells were harvested and washed once with phosphate buffered saline (pH 7.2). The cells were then counted with a hemacytometer and resuspended at 1×10^5 cells/ml in Ham's F12 supplemented with 10% fetal calf serum and antibiotics. A 10 ml aliquot of cells was transferred to collagen coated 25 cm^2 flasks (coated with collagen isolated from rat tail tendons) and incubated at 37° C. in 5% CO2 in air. […] Cell numbers were quantitated by staining the cells with Giemsa stain and counting the number of nuclei detected via microscopy.

[1] = Effectiveness tests of AII fragments (method not described); conditions: test not specified

Substance	times higher affinity for AT2 than AT1 (AT2 receptor) [times]	effect on chondrocyte proliferation (chondrocytes)	effectiveness in tests [1]
Asp-Arg-Val-Tyr-Ile-His-Pro-Phe (DRVYIHPF) [AII]	100	accelerated the chondrocyte proliferation	
His-Pro-Phe (HPF) [AII(6-8)]			not to be effective
Tyr-Ile-His-Pro-Phe (YIHPF) [AII(4-8)]			not to be effective; also recorded: ineffective in repeated tests
